According to ChEMBL document CHEMBL1201862, “PubChem BioAssay data set” (2004):
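Five compound concentrations were applied to cells in 96-well plates for 48 hours; endpoints were derived by simple linear interpolation of the resulting dose-response curve. GI50 is the concentration that inhibits growth by half.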 Calls of active or inactive are those of the source. Cut-off read from the data, not from the text of the source: active = GI50 up to about 1.1 µM and inactive = higher.

Columns and labels:
Assay in all cases: DTP human tumour cell line panel, 48 h
[1] = system: OVCAR-8
[2] = system: MDA-N
[3] = system: SF-539
[4] = system: MDA-MB-435
[5] = system: UACC-257
[6] = system: TK-10
[7] = system: HT-29
[8] = system: NCI/ADR-RES
[9] = system: SK-MEL-28
[10] = system: SNB-75
[11] = system: M14
[12] = system: SK-OV-3
[13] = system: OVCAR-4
[14] = system: MDA-MB-231
[15] = system: A498
[16] = system: SF-295
[17] = system: OVCAR-5
[18] = system: HCT-116
[19] = system: SF-268
[20] = system: HCT-15
[21] = system: EKVX
[22] = system: A549
[23] = system: UO-31
[24] = system: PC-3
[25] = system: BT-549
[26] = system: OVCAR-3
[27] = system: SW-620
[28] = system: ACHN
[29] = system: HL-60
[30] = system: MOLT-4
[31] = system: NCI-H226
[32] = system: K562
[33] = system: COLO 205
[34] = system: SK-MEL-2
[35] = system: HOP-92
[36] = system: RXF 393
[37] = system: DU-145
[38] = system: Malme-3M
[39] = system: MCF7
[40] = system: CCRF-CEM
[41] = system: IGROV-1
[42] = system: 786-0
[43] = system: T47D
[44] = system: Hs-578T
[45] = system: SN12C
[46] = system: KM12
[47] = system: U-251
[48] = system: NCI-H23
[49] = system: HCC 2998
[50] = system: UACC-62
[51] = system: CAKI-1
[52] = system: LOX IMVI
[53] = system: NCI-H460
[54] = system: HOP-62
[55] = system: SK-MEL-5
[56] = system: SNB-19
[57] = system: RPMI-8226
[58] = system: NCI-H522

## C[C@]12CC[C@@H]3c4cc(Br)c(O)c(Br)c4CC[C@H]3[C@@H]1CCC2=O
[1]
  GI50: 19 µM (inactive)
[2]
  GI50: 33.1 µM (inactive)
[3]
  GI50: 19.9 µM (inactive)
[4]
  GI50: 26.2 µM (inactive)
[5]
  GI50: 20.9 µM (inactive)
[6]
  GI50: 17.6 µM (inactive)
[7]
  GI50: 46.1 µM (inactive)
[8]
  GI50: 12.5 µM (inactive)
[9]
  GI50: 31 µM (inactive)
[10]
  GI50: 16.1 µM (inactive)
[11]
  GI50: 39.2 µM (inactive)
[12]
  GI50: 31.4 µM (inactive)
[13]
  GI50: 13.3 µM (inactive)
[14]
  GI50: 32.2 µM (inactive)
[15]
  GI50: 40.9 µM (inactive)
[16]
  GI50: 16.4 µM (inactive)
[17]
  GI50: 21.8 µM (inactive)
[18]
  GI50: 27.5 µM (inactive)
[19]
  GI50: 23.3 µM (inactive)
[20]
  GI50: 12.4 µM
[21]
  GI50: 25.5 µM (inactive)
[22]
  GI50: 17.3 µM (inactive)
[23]
  GI50: 11.9 µM (inactive)
[24]
  GI50: 30.8 µM (inactive)
[25]
  GI50: 23.8 µM (inactive)
[26]
  GI50: 16.4 µM (inactive)
[27]
  GI50: 32.9 µM (inactive)
[28]
  GI50: 13.5 µM (inactive)
[29]
  GI50: 26.2 µM (inactive)
[30]
  GI50: 20.6 µM (inactive)
[31]
  GI50: 7.87 µM (inactive)
[32]
  GI50: 18 µM (inactive)
[33]
  GI50: > 100 µM (inactive)
[34]
  GI50: 15 µM (inactive)
[35]
  GI50: 34.9 µM (inactive)
[36]
  GI50: 16.7 µM (inactive)
[37]
  GI50: 39.6 µM (inactive)
[38]
  GI50: 85.9 µM (inactive)
[39]
  GI50: 21.4 µM (inactive)
[40]
  GI50: 24.7 µM (inactive)
[41]
  GI50: 38.1 µM (inactive)
[42]
  GI50: 19.7 µM (inactive)
[43]
  GI50: 33.9 µM (inactive)
[44]
  GI50: 21.9 µM (inactive)
[45]
  GI50: 27.7 µM (inactive)
[46]
  GI50: 63.7 µM (inactive)
[47]
  GI50: 16.6 µM (inactive)
[48]
  GI50: 13.8 µM (inactive)
[49]
  GI50: 13.9 µM (inactive)
[50]
  GI50: 16.3 µM (inactive)
[51]
  GI50: 18.9 µM (inactive)
[52]
  GI50: 20.4 µM (inactive)
[53]
  GI50: 21.4 µM (inactive)

## CC1(C)SC2C(NC(=O)C(C(=O)O)c3ccccc3)C(=O)N2C1C(=O)O (stereo not given)
[1]
  GI50: > 100 µM (inactive)
[2]
  GI50: > 100 µM (inactive)
[3]
  GI50: > 100 µM (inactive)
[4]
  GI50: > 100 µM (inactive)
[5]
  GI50: > 100 µM (inactive)
[6]
  GI50: > 100 µM (inactive)
[7]
  GI50: > 100 µM (inactive)
[8]
  GI50: > 100 µM (inactive)
[9]
  GI50: > 100 µM (inactive)
[10]
  GI50: 92 µM (inactive)
[11]
  GI50: > 100 µM (inactive)
[12]
  GI50: > 100 µM (inactive)
[54]
  GI50: > 100 µM (inactive)
[14]
  GI50: > 100 µM (inactive)
[15]
  GI50: > 100 µM (inactive)
[16]
  GI50: > 100 µM (inactive)
[17]
  GI50: > 100 µM (inactive)
[18]
  GI50: > 100 µM (inactive)
[19]
  GI50: > 100 µM (inactive)
[20]
  GI50: > 100 µM
[21]
  GI50: > 100 µM (inactive)
[55]
  GI50: > 100 µM (inactive)
[23]
  GI50: > 100 µM (inactive)
[24]
  GI50: > 100 µM (inactive)
[25]
  GI50: > 100 µM (inactive)
[26]
  GI50: > 100 µM (inactive)
[27]
  GI50: > 100 µM (inactive)
[56]
  GI50: > 100 µM (inactive)
[28]
  GI50: > 100 µM (inactive)
[29]
  GI50: > 100 µM (inactive)
[30]
  GI50: > 100 µM (inactive)
[31]
  GI50: > 100 µM (inactive)
[32]
  GI50: > 100 µM (inactive)
[33]
  GI50: > 100 µM (inactive)
[34]
  GI50: > 100 µM (inactive)
[36]
  GI50: > 100 µM (inactive)
[37]
  GI50: > 100 µM (inactive)
[38]
  GI50: > 100 µM (inactive)
[39]
  GI50: > 100 µM (inactive)
[40]
  GI50: > 100 µM (inactive)
[41]
  GI50: > 100 µM (inactive)
[57]
  GI50: > 100 µM (inactive)
[42]
  GI50: > 100 µM (inactive)
[43]
  GI50: > 100 µM (inactive)
[44]
  GI50: > 100 µM (inactive)
[45]
  GI50: > 100 µM (inactive)
[46]
  GI50: > 100 µM (inactive)
[47]
  GI50: > 100 µM (inactive)
[48]
  GI50: > 100 µM (inactive)
[50]
  GI50: > 100 µM (inactive)
[51]
  GI50: > 100 µM (inactive)
[52]
  GI50: > 100 µM (inactive)

## c1ccc([P+](c2ccccc2)(c2ccccc2)c2ccc(-c3ccc([P+](c4ccccc4)(c4ccccc4)c4ccccc4)cc3)cc2)cc1
[1]
  GI50: 19.4 µM (inactive)
[2]
  GI50: 29.3 µM (inactive)
[3]
  GI50: 40 µM (inactive)
[4]
  GI50: 26.7 µM (inactive)
[5]
  GI50: 19.8 µM (inactive)
[6]
  GI50: 34.8 µM (inactive)
[7]
  GI50: 20.7 µM (inactive)
[8]
  GI50: > 100 µM (inactive)
[9]
  GI50: 49.5 µM (inactive)
[11]
  GI50: 44.9 µM (inactive)
[12]
  GI50: 43.2 µM (inactive)
[13]
  GI50: 21.5 µM (inactive)
[54]
  GI50: 46.5 µM (inactive)
[14]
  GI50: 32.8 µM (inactive)
[15]
  GI50: 3.97 µM (inactive)
[16]
  GI50: 30.2 µM (inactive)
[17]
  GI50: 67.5 µM (inactive)
[18]
  GI50: 18.2 µM (inactive)
[19]
  GI50: 58.5 µM (inactive)
[20]
  GI50: > 100 µM
[21]
  GI50: 37 µM (inactive)
[55]
  GI50: 1.56 µM (inactive)
[22]
  GI50: 27.7 µM (inactive)
[24]
  GI50: 35.5 µM (inactive)
[25]
  GI50: 47.9 µM (inactive)
[26]
  GI50: 15.8 µM (inactive)
[27]
  GI50: 30.6 µM (inactive)
[56]
  GI50: 50.7 µM (inactive)
[28]
  GI50: 23.1 µM (inactive)
[29]
  GI50: > 100 µM (inactive)
[30]
  GI50: > 100 µM (inactive)
[31]
  GI50: 30.8 µM (inactive)
[32]
  GI50: > 100 µM (inactive)
[33]
  GI50: 16.4 µM (inactive)
[34]
  GI50: 24.3 µM (inactive)
[36]
  GI50: 48.1 µM (inactive)
[37]
  GI50: 63.8 µM (inactive)
[38]
  GI50: 25.3 µM (inactive)
[39]
  GI50: 36.8 µM (inactive)
[40]
  GI50: 82.4 µM (inactive)
[41]
  GI50: 3.67 µM (inactive)
[57]
  GI50: > 100 µM (inactive)
[42]
  GI50: 25.9 µM (inactive)
[43]
  GI50: 41.4 µM (inactive)
[44]
  GI50: > 100 µM (inactive)
[45]
  GI50: 26.5 µM (inactive)
[46]
  GI50: 75.5 µM (inactive)
[47]
  GI50: 7.94 µM (inactive)
[48]
  GI50: 21.9 µM (inactive)
[49]
  GI50: 47.4 µM (inactive)
[50]
  GI50: 56.6 µM (inactive)
[58]
  GI50: 18.3 µM (inactive)
[51]
  GI50: > 100 µM (inactive)
[52]
  GI50: 23.3 µM (inactive)
[53]
  GI50: 27 µM (inactive)
